# Molecular target: T1, recombinant mouse APA (Mus musculus, UniProt P16406)
# T1 sequence (P16406 1-945): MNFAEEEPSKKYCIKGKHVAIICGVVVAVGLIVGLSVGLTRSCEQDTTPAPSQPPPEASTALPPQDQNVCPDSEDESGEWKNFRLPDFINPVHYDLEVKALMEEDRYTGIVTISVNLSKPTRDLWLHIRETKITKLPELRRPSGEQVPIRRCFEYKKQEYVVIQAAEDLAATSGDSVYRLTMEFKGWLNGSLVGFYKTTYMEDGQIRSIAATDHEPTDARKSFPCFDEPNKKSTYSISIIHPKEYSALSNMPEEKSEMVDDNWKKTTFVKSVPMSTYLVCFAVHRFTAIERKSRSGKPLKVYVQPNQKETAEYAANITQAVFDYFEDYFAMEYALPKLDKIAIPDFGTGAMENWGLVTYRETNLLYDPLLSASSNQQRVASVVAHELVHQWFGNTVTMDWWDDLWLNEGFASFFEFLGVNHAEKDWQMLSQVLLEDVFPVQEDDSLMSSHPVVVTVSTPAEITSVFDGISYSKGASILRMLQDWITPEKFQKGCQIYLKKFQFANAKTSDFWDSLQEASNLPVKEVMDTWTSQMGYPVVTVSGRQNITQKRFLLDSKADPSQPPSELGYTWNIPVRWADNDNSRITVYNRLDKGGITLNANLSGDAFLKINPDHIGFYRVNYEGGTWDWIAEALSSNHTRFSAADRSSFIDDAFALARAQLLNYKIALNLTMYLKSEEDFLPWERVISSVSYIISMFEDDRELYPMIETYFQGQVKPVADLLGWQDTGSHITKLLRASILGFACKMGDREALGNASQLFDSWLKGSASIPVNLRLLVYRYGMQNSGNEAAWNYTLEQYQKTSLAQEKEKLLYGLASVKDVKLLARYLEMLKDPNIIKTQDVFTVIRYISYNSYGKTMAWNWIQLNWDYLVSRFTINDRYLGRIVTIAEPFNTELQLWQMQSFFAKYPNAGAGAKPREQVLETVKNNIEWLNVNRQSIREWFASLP
# Test: Measurement of APA activity in vitro (GluβNa hydrolysis, microplate)
# Assay type: biochemical
# Details: 200 μM Glu-βNa, pH 7.4, 37° C., read-out: In vitro inhibition of aminopeptidase A, IC50 classification
# Text: In vitro, in the presence of calcium ions, APA hydrolyses a synthetic substrate α-L-glutamyl-β-naphthylamide (GluβNa) to glutamate and β-naphthylamine (βNa). A diazotation reaction in acidic medium makes it possible to reveal the β-naphthylamine by formation of a violet-coloured complex: spectrophotometric measurement then makes it possible to know the amount of complex formed and, by reference to a standard curve produced with increasing concentrations of β-naphthylamine, to deduce the enzymatic activity of the sample.
# The reaction takes place at pH 7.4 in 50 mM tris-HCl buffer, in the presence of calcium (4 mM CaCl2)); recombinant mouse APA is incubated at 37° C. in the presence of the substrate (200 μM Glu-βNa) and in the presence or absence of various concentrations of the inhibitor to be tested, in a final volume of 100 μL. The reaction is stopped by adding 10 μL of 3N HCl. A standard curve of β-naphthylamine was prepared in parallel by diazotizing increasing concentrations (up to 0.2 mM) of 2-naphthylamine in 0.1 N HCl.
# The following are added to each well: 25 μL of sodium nitrite (NaNO2) (mix, wait 5 minutes at room temperature), 50 μL of ammonium sulfamate (mix, wait 5 minutes at room temperature), then add 25 μL of N-(1-naphthyl) ethylenediamine dihydrochloride (mix, wait for stabilization of the violet colour for approximately 30 minutes at 37° C.).
# The absorbance is then measured at 540 nm.
row,Compound,IC50 [nM]
1,"NC(CCC(=O)O)P(=O)(O)Cc1ccccc1 (stereo not shown) [Example 1, 4-amino-4-[benzyl(hydroxy)phosphoryl]butanoic acid]",30 to 300
2,"NC(CCC(=O)O)P(=O)(O)Cc1cc(C(F)(F)F)cc(C(F)(F)F)c1 (stereo not shown) [Example 5, 4-amino-4-({[3,5-bis(trifluoromethyl)phenyl]methyl}(hydroxy)phosphoryl) butanoic acid]",300 to 10000
3,"NC(CCC(=O)O)P(=O)(O)Cc1ccccc1-c1ccccc1 (stereo not shown) [Example 6, 4-amino-4-[({[1,1′-biphenyl]-2-yl}methyl)(hydroxy)phosphoryl]butanoic acid]",300 to 10000
4,"NC(CCC(=O)O)P(=O)(O)Cc1cccc(OC(F)(F)F)c1 (stereo not shown) [Example 7, 4-amino-4-[hydroxy({[3-(trifluoromethoxy)phenyl]methyl})phosphoryl]butanoic acid]",30 to 300
5,"COc1ccccc1CP(=O)(O)C(N)CCC(=O)O (stereo not shown) [Example 10, 4-amino-4-{hydroxy[(2-methoxyphenyl)methyl]phosphoryl}butanoic acid]",< 30
6,"COc1cccc(CP(=O)(O)C(N)CCC(=O)O)c1 (stereo not shown) [Example 11, 4-amino-4-{hydroxy[(3-methoxyphenyl)methyl]phosphoryl}butanoic acid]",< 30
7,"NC(CCC(=O)O)P(=O)(O)Cc1cccc2ccccc12 (stereo not shown) [Example 15, 4-amino-4-{hydroxy[(naphthalen-1-yl)methyl]phosphoryl}butanoic acid]",< 30
8,"NC(CCC(=O)O)P(=O)(O)Cc1ccccc1Oc1ccccc1 (stereo not shown) [Example 16, 4-amino-4-{hydroxy[(2-phenoxyphenyl)methyl]phosphoryl}butanoic acid]",30 to 300
9,"NC(CCC(=O)O)P(=O)(O)Cc1cccc(Oc2ccccc2)c1 (stereo not shown) [Example 17, 4-amino-4-{hydroxy[(3-phenoxyphenyl)methyl]phosphoryl}butanoic acid]",30 to 300
10,"NC(CCC(=O)O)P(=O)(O)Cc1ccc(Oc2ccccc2)cc1 (stereo not shown) [Example 18, 4-amino-4-{hydroxy[(4-phenoxyphenyl)methyl]phosphoryl}butanoic acid]",30 to 300
11,"NC(CCC(=O)O)P(=O)(O)Cc1cccc(-c2ccccc2)c1 (stereo not shown) [Example 19, 4-amino-4-[({[1,1′-biphenyl]-3-yl}methyl)(hydroxy)phosphoryl]butanoic acid]",30 to 300
12,"NC(CCC(=O)O)P(=O)(O)Cc1cc(-c2ccccc2)no1 (stereo not shown) [Example 20, 4-amino-4-{hydroxy[(3-phenyl-1,2-oxazol-5-yl)methyl]phosphoryl}butanoic acid]",300 to 10000
13,"NC(CCC(=O)O)P(=O)(O)Cc1cc(-c2ccccc2)on1 (stereo not shown) [Example 21, 4-amino-4-{hydroxy[(5-phenyl-1,2-oxazol-3-yl)methyl]phosphoryl}butanoic acid]",30 to 300
14,"CC(C)(CP(=O)(O)C(N)CCC(=O)O)c1ccccc1 (stereo not shown) [Example 27, 4-amino-4-[hydroxy(2-methyl-2-phenylpropyl)phosphoryl]butanoic acid]",300 to 10000
15,"NC(CCC(=O)O)P(=O)(O)CCc1ccccc1Oc1ccccc1 (stereo not shown) [Example 35, 4-amino-4-{hydroxy[2-(2-phenoxyphenyl)ethyl]phosphoryl}butanoic acid]",< 30
16,"NC(CCC(=O)O)P(=O)(O)CCc1ccccc1OC1CCCC1 (stereo not shown) [Example 36, 4-amino-4-({2-[2-(cyclopentyloxy)phenyl]ethyl}(hydroxy)phosphoryl) butanoic acid]",< 30
17,"NC(CCC(=O)O)P(=O)(O)CCc1ccccc1OC(F)(F)F (stereo not shown) [Example 38, 4-amino-4-[hydroxy({2-[2-(trifluoromethoxy)phenyl]ethyl})phosphoryl]butanoic acid]",< 30

# Other lines, results leading:
row,IC50 [nM],Compound
1,30 to 300,"Cc1ccccc1CP(=O)(O)C(N)CCC(=O)O (stereo not shown) [Example 2, 4-amino-4-{hydroxy[(2-methylphenyl)methyl]phosphoryl}butanoic acid]"
2,30 to 300,"Cc1cccc(CP(=O)(O)C(N)CCC(=O)O)c1 (stereo not shown) [Example 3, 4-amino-4-{hydroxy[(3-methylphenyl)methyl]phosphoryl}butanoic acid]"
3,30 to 300,"Cc1ccc(CP(=O)(O)C(N)CCC(=O)O)cc1 (stereo not shown) [Example 4, 4-amino-4-{hydroxy[(4-methylphenyl)methyl]phosphoryl}butanoic acid]"
4,30 to 300,"NC(CCC(=O)O)P(=O)(O)Cc1ccc(OC(F)(F)F)cc1 (stereo not shown) [Example 8, 4-amino-4-[hydroxy({[4-(trifluoromethoxy)phenyl]methyl})phosphoryl]butanoic acid]"
5,300 to 10000,"CS(=O)(=O)c1ccc(CP(=O)(O)C(N)CCC(=O)O)cc1 (stereo not shown) [Example 9, 4-amino-4-{hydroxy[(4-methanesulfonylphenyl)methyl]phosphoryl}butanoic acid]"
6,30 to 300,"COc1ccc(CP(=O)(O)C(N)CCC(=O)O)cc1 (stereo not shown) [Example 12, 4-amino-4-{hydroxy[(4-methoxyphenyl)methyl]phosphoryl}butanoic acid]"
7,30 to 300,"N#Cc1cccc(CP(=O)(O)C(N)CCC(=O)O)c1 (stereo not shown) [Example 13, 4-amino-4-{[(3-cyanophenyl)methyl](hydroxy)phosphoryl}butanoic acid]"
8,30 to 300,"N#Cc1ccc(CP(=O)(O)C(N)CCC(=O)O)cc1 (stereo not shown) [Example 14, 4-amino-4-{[(4-cyanophenyl)methyl](hydroxy)phosphoryl}butanoic acid]"
9,< 30,"Cc1ccccc1CCP(=O)(O)C(N)CCC(=O)O (stereo not shown) [Example 23, 4-amino-4-{hydroxy[2-(2-methylphenyl)ethyl]phosphoryl}butanoic acid]"
10,< 30,"Cc1cccc(CCP(=O)(O)C(N)CCC(=O)O)c1 (stereo not shown) [Example 24, 4-amino-4-{hydroxy[2-(3-methylphenyl)ethyl]phosphoryl}butanoic acid]"
11,< 30,"Cc1ccc(CCP(=O)(O)C(N)CCC(=O)O)cc1 (stereo not shown) [Example 25, 4-amino-4-{hydroxy[2-(4-methylphenyl)ethyl]phosphoryl}butanoic acid]"
12,30 to 300,"NC(CCC(=O)O)P(=O)(O)CCc1cccc(C(F)(F)F)c1 (stereo not shown) [Example 26, 4-amino-4-[hydroxy({2-[3-(trifluoromethyl)phenyl]ethyl})phosphoryl]butanoic acid]"
13,< 30,"NC(CCC(=O)O)P(=O)(O)CCc1ccccc1Cl (stereo not shown) [Example 28, 4-amino-4-{[2-(2-chlorophenyl)ethyl](hydroxy)phosphoryl}butanoic acid]"
14,30 to 300,"NC(CCC(=O)O)P(=O)(O)CCc1cccc(Cl)c1 (stereo not shown) [Example 29, 4-amino-4-{[2-(3-chlorophenyl)ethyl](hydroxy)phosphoryl}butanoic acid]"
15,< 30,"NC(CCC(=O)O)P(=O)(O)CCc1ccc2ccccc2c1 (stereo not shown) [Example 30, 4-amino-4-{hydroxy[2-(naphthalen-2-yl)ethyl]phosphoryl}butanoic acid]"
16,< 30,"NC(CCC(=O)O)P(=O)(O)CCc1cccc2ccccc12 (stereo not shown) [Example 31, 4-amino-4-{hydroxy[2-(naphthalen-1-yl)ethyl]phosphoryl}butanoic acid]"
17,< 30,"COc1ccccc1CCP(=O)(O)C(N)CCC(=O)O (stereo not shown) [Example 32, 4-amino-4-{hydroxy[2-(2-methoxyphenyl)ethyl]phosphoryl}butanoic acid]"
18,< 30,"COc1cccc(CCP(=O)(O)C(N)CCC(=O)O)c1 (stereo not shown) [Example 33, 4-amino-4-{hydroxy[2-(3-methoxyphenyl)ethyl]phosphoryl} butanoic acid]"
19,< 30,"COc1ccc(CCP(=O)(O)C(N)CCC(=O)O)cc1 (stereo not shown) [Example 34, 4-amino-4-{hydroxy[2-(4-methoxyphenyl)ethyl]phosphoryl}butanoic acid]"
20,30 to 300,"NC(CCC(=O)O)P(=O)(O)CCCc1ccccc1 (stereo not shown) [Example 37, 4-amino-4-[hydroxy(3-phenylpropyl)phosphoryl]butanoic acid]"
